# Measurements published in US12528802B2, “Heterocyclic compound” (Takeda Pharmaceutical Company Limited, priority 2019, dated 2026).
# Target: T1, glucosylceramide synthase (Homo sapiens, UniProt Q16739)
# T1 construct: made in house; host or cells: Expi293F cells (transient expression, pcDNA3.3-TOPO vector); microsome fraction used as enzyme source
# T1 sequence (Q16739 1-394): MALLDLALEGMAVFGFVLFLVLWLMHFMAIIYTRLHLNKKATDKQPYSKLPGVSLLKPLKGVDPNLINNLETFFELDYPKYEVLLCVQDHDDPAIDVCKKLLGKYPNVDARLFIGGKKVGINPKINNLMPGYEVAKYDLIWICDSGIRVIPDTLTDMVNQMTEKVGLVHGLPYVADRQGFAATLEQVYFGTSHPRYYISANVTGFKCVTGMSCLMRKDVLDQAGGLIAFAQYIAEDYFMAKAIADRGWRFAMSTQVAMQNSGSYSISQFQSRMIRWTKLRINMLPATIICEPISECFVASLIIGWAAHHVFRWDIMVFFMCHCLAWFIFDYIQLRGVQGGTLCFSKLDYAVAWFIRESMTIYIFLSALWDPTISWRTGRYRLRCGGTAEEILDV
# Assay: Glucosylceramide synthase (GCS) enzyme assay, microsome fraction, C8 glucosylceramide quantified by Rapidfire MS/MS
# Type: biochemical
# Conditions: test compound 10 μM; 1.7 μM UDP-glucose, 3 μM C8 ceramide; room temperature 60 min; read-out: GCS enzyme inhibitory rate at 10 μM (%) (% of control)
# Method in brief: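 Test compound, 10 μM final, was run against human GCS from transfected Expi293F microsome fractions, using substrate solution of 6 μM C8 ceramide (in DOPC liposomes) plus 3.4 μM UDP-glucose, pH 7.5 Tris buffer, 60 min, room temperature. Product C8 glucosylceramide measured by Rapidfire MS/MS against an internal standard, % inhibition referenced to no-enzyme and DMSO wells.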
row,SMILES,inhibition at 10 µM [%]
1,"O=C1c2ccnc(-c3ccccc3OC(F)F)c2CN1c1ccc(C(F)(F)F)cn1 [Example 67, 4-[2-(difluoromethoxy)phenyl]-2-[5-(trifluoromethyl)pyridin-2-yl]-2,3-dihydro-1H-pyrrolo[3,4-c]pyridin-1-one]",95
2,"CC(O)(c1ccc(N2Cc3c(ccnc3-c3ccccc3OCC(F)(F)F)C2=O)cc1)C(F)(F)F (racemic) [Example 295, rac-4-[2-(2,2,2-trifluoroethoxy)phenyl]-2-[4-(1,1,1-trifluoro-2-hydroxypropan-2-yl)phenyl]-2,3-dihydro-1H-pyrrolo[3,4-c]pyridin-1-one]",100
3,"O=C1c2ccnc(-c3ccccc3OCC(F)(F)F)c2CN1c1ccc(C2(O)CNC2)cc1 [Example 259, 2-[4-(3-hydroxyazetidin-3-yl)phenyl]-4-[2-(2,2,2-trifluoroethoxy)phenyl]-2,3-dihydro-1H-pyrrolo[3,4-c]pyridin-1-one]",85
4,"CC(C)(O)c1ccc(N2Cc3c(ccnc3-c3ccc(F)cc3OCC(F)(F)F)C2=O)cn1 [Example 197, 4-[4-fluoro-2-(2,2,2-trifluoroethoxy)phenyl]-2-[6-(2-hydroxypropan-2-yl)pyridin-3-yl]-2,3-dihydro-1H-pyrrolo[3,4-c]pyridin-1-one]",88
5,"O=C1c2ccnc(-c3ccc(F)cc3OCCOC(F)(F)F)c2CN1c1ccc(OC(F)F)nc1 [Example 174, 2-[6-(difluoromethoxy)pyridin-3-yl]-4-{4-fluoro-2-[2-(trifluoromethoxy)ethoxy]phenyl}-2,3-dihydro-1H-pyrrolo[3,4-c]pyridin-1-one]",99
6,"CC(C)(O)c1ccc(N2Cc3c(ccnc3-c3ccc(F)cc3OCC(F)(F)F)C2=O)cc1F [Example 212, 2-[3-fluoro-4-(2-hydroxypropan-2-yl)phenyl]-4-[4-fluoro-2-(2,2,2-trifluoroethoxy)phenyl]-2,3-dihydro-1H-pyrrolo[3,4-c]pyridin-1-one]",99
7,"O=C(C1CC1)N1CC(O)(c2ccc(N3Cc4c(ccnc4-c4ccccc4OCC(F)(F)F)C3=O)cc2)C1 [Example 261, 2-{4-[1-(cyclopropanecarbonyl)-3-hydroxyazetidin-3-yl]phenyl}-4-[2-(2,2,2-trifluoroethoxy)phenyl]-2,3-dihydro-1H-pyrrolo[3,4-c]pyridin-1-one]",93
8,"O=C1c2ccnc(-c3ccc(F)cc3OCc3ccccc3)c2CN1c1ccc(OC(F)F)nc1 [Example 101, 4-[2-(benzyloxy)-4-fluorophenyl]-2-[6-(difluoromethoxy)pyridin-3-yl]-2,3-dihydro-1H-pyrrolo[3,4-c]pyridin-1-one]",79
9,"Cn1nc(N2Cc3c(ccnc3-c3ccc(F)cc3OCC(F)(F)F)C2=O)cc1C#N [Example 318, 3-{4-[4-fluoro-2-(2,2,2-trifluoroethoxy)phenyl]-1-oxo-1,3-dihydro-2H-pyrrolo [3,4-c]pyridin-2-yl}-1-methyl-1H-pyrazole-5-carbonitrile]",52
10,"O=C1c2ccnc(-c3ccccc3OCC(F)(F)F)c2CN1c1ccc(O[C@H]2CCOC2)cc1 [Example 188, 2-(4-{[(3S)-oxolan-3-yl]oxy}phenyl)-4-[2-(2,2,2-trifluoroethoxy)phenyl]-2,3-dihydro-1H-pyrrolo[3,4-c]pyridin-1-one]",100
11,"CC(=O)N1CC(O)(c2ccc(N3Cc4c(ccnc4-c4ccccc4OCC(F)(F)F)C3=O)cc2)C1 [Example 258, 2-[4-(1-acetyl-3-hydroxyazetidin-3-yl)phenyl]-4-[2-(2,2,2-trifluoroethoxy)phenyl]-2,3-dihydro-1H-pyrrolo[3,4-c]pyridin-1-one]",70
12,"O=C1c2ccnc(-c3ccccc3OCC(F)(F)F)c2CN1c1ccc(OC(F)(F)F)cn1 [Example 56, 4-[2-(2,2,2-trifluoroethoxy)phenyl]-2-[5-(trifluoromethoxy)pyridin-2-yl]-2,3-dihydro-1H-pyrrolo[3,4-c]pyridin-1-one]",100
13,"CC(C)(O)C(F)(F)c1ccc(N2Cc3c(ccnc3-c3ccccc3OCC(F)(F)F)C2=O)cc1 [Example 340, 2-[4-(1,1-difluoro-2-hydroxy-2-methylpropyl)phenyl]-4-[2-(2,2,2-trifluoroethoxy)phenyl]-2,3-dihydro-1H-pyrrolo[3,4-c]pyridin-1-one]",99
14,"CSc1ccccc1-c1nccc2c1CN(c1ccc(F)cc1)C2=O [Example 31, 2-(4-fluorophenyl)-4-[2-(methylsulfanyl)phenyl]-2,3-dihydro-1H-pyrrolo[3,4-c]pyridin-1-one]",93
15,"Cn1nc(N2Cc3c(ccnc3-c3ccc(F)cc3OCC(F)(F)F)C2=O)cc1C1CC1 [Example 239, 2-(5-cyclopropyl-1-methyl-1H-pyrazol-3-yl)-4-[4-fluoro-2-(2,2,2-trifluoroethoxy)phenyl]-2,3-dihydro-1H-pyrrolo[3,4-c]pyridin-1-one]",51
16,"CC(C)(O)c1ccc(N2Cc3c(ccnc3-c3ccc(F)cc3OCC(F)F)C2=O)cc1 [Example 241, 4-[2-(2,2-difluoroethoxy)-4-fluorophenyl]-2-[4-(2-hydroxypropan-2-yl)phenyl]-2,3-dihydro-1H-pyrrolo[3,4-c]pyridin-1-one]",98
17,"COc1ccccc1-c1nccc2c1CN(c1ccc(C#N)cc1)C2=O [Example 18, 4-[4-(2-methoxyphenyl)-1-oxo-1,3-dihydro-2H-pyrrolo[3,4-c]pyridin-2-yl]benzonitrile]",56
18,"O=C1c2ccnc(-c3ccccc3OCC(F)(F)F)c2CN1c1ccc(C(F)(F)F)cn1 [Example 60, 4-[2-(2,2,2-trifluoroethoxy)phenyl]-2-[5-(trifluoromethyl)pyridin-2-yl]-2,3-dihydro-1H-pyrrolo[3,4-c]pyridin-1-one]",99
19,"Cc1cc2c(n(-c3ccccc3OCC(F)(F)F)c1=O)CN(c1ccc(C(C)(C)O)cc1)C2=O [Example 337, 6-[4-(2-hydroxypropan-2-yl)phenyl]-3-methyl-1-[2-(2,2,2-trifluoroethoxy)phenyl]-6,7-dihydro-1H-pyrrolo[3,4-b]pyridine-2,5-dione]",98
20,"O=C1C2=C(CN1c1ccc(F)cc1)C(c1ccc(F)cc1OCC(F)(F)F)=NCCN2 [Example 145, 7-(4-fluorophenyl)-5-[4-fluoro-2-(2,2,2-trifluoroethoxy)phenyl]-2,3,6,7-tetrahydropyrrolo[3,4-e][1,4]diazepin-8(1H)-one]",63
21,"COc1ccccc1-c1nccc2c1CN(c1ccc(OCC(F)(F)F)cc1)C2=O [Example 50, 4-(2-methoxyphenyl)-2-[4-(2,2,2-trifluoroethoxy)phenyl]-2,3-dihydro-1H-pyrrolo[3,4-c]pyridin-1-one]",99
22,"CCS(=O)(=O)c1ccc(N2Cc3c(ccnc3-c3ccccc3OCC(F)(F)F)C2=O)cc1 [Example 160, 2-[4-(ethanesulfonyl)phenyl]-4-[2-(2,2,2-trifluoroethoxy)phenyl]-2,3-dihydro-1H-pyrrolo[3,4-c]pyridin-1-one]",99
23,"Cn1ccc(N2Cc3c(ccnc3-c3ccc(F)cc3OCC(F)(F)F)C2=O)n1 [Example 45, 4-[4-fluoro-2-(2,2,2-trifluoroethoxy)phenyl]-2-(1-methyl-1H-pyrazol-3-yl)-2,3-dihydro-1H-pyrrolo[3,4-c]pyridin-1-one]",89
24,"COc1cc(F)ccc1-c1cncc2c1CN(c1ccc(F)cc1)C2=O [Example 80, 7-(4-fluoro-2-methoxyphenyl)-2-(4-fluorophenyl)-1,2-dihydro-3H-pyrrolo [3,4-c]pyridin-3-one]",72
25,"O=C1c2ccnc(-c3ccncc3OCC(F)(F)F)c2CN1c1ccc(OC(F)F)cn1 [Example 91, 2-[5-(difluoromethoxy)pyridin-2-yl]-4-[3-(2,2,2-trifluoroethoxy)pyridin-4-yl]-2,3-dihydro-1H-pyrrolo[3,4-c]pyridin-1-one]",99
26,"O=C1CCCN1Cc1ccc(N2Cc3c(ccnc3-c3ccc(F)cc3OCC(F)(F)F)C2=O)cc1 [Example 211, 4-[4-fluoro-2-(2,2,2-trifluoroethoxy)phenyl]-2-{4-[(2-oxopyrrolidin-1-yl)methyl]phenyl}-2,3-dihydro-1H-pyrrolo[3,4-c]pyridin-1-one]",81
27,"Cn1nc(-c2ccccc2OCC(F)(F)F)c2c1CN(c1ccc(F)cc1)C2 [Example 205, 5-(4-fluorophenyl)-1-methyl-3-[2-(2,2,2-trifluoroethoxy)phenyl]-1,4,5,6-tetrahydropyrrolo[3,4-c]pyrazole]",83
28,"O=C1c2ccnc(-c3ccc(F)cc3OCC(F)(F)F)c2CN1c1ccc(C2(O)COC2)cc1 [Example 155, 4-[4-fluoro-2-(2,2,2-trifluoroethoxy)phenyl]-2-[4-(3-hydroxyoxetan-3-yl)phenyl]-2,3-dihydro-1H-pyrrolo[3,4-c]pyridin-1-one]",93
29,"CN(C)C(=O)c1ccc(N2Cc3cnn(-c4ccccc4OCC(F)(F)F)c3C2)cc1 [Example 217, N,N-dimethyl-4-{1-[2-(2,2,2-trifluoroethoxy)phenyl]-4,6-dihydropyrrolo[3,4-c]pyrazol-5(1H)-yl}benzamide]",98
